Data: US4751305A, “2-heterocyclobenzo[B][1,6]naphthyridines as inhibitors of interleukin” (American Home Products Corporation, priority 1987, dated 1988)

System: IL 1-induced release of neutral protease from rabbit articular chondrocytes
Test: inhibition of the IL 1-induced release of neutral protease from rabbit articular chondrocytes (azocoll neutral protease assay)
Assay type: cell-based
Details: Oryctolagus cuniculus, Chondrocyte, compound 10 min before purified human IL 1, 24 h, read-out: % Inhibition (I.S.D.)
Method: The ability of the compounds of the inventions to inhibit interleukin 1 is measured by the ability of the test compounds to inhibit the IL 1-induced release of neutral protease from rabbit articular chondrocytes.
This assay is carried out as follows:
Isolation of rabbit chondrocytes:
Male New Zealand White rabbits are anesthetized with 50 mg/kg of ketamine (i.m.) and killed by an intracardiac injection of 3 mls. of Nembutal. The knee joints of both legs are resected and the articular surfaces are exposed. Cartilage slices are obtained using a scalpel and are placed in a tissue culture dish (100 mm diameter) containing 10 mls of Hank's balanced salt solution (HBSS). The chondrocytes within the cartilage slices are then liberated by a series of enzyme digestions. The slices are incubated for 10 min. at 37° C. in 0.05% hyaluronidase (Sigma H-3884), rinsed with HBSS and incubated with 0.2% trypsin (Sigma T-2395) for 10 min. at 37° C. The slices are rinsed again and incubated for 10 mins. at 37° C. with 1.2% collagenase (Sigma C-5138). The slices are then rinsed again with HBSS and resuspended in 10 ml of Ham's F-12 medium containing 10% fetal bovine calf serum (FCS) and 0.2% collagenase and incubated overnight at 37° C. in a 5% CO2 incubator. The next day, the medium containing the digested cartilage fragments and liberated chondrocytes is transferred to a 15 ml centrifuge tube and the cells are collected by centrifugation and washed twice and resuspended in Ham's F-12 medium. The cells are then plated into 24-well tissue culture plates (2×10^5 cells/well) and incubated at 37° C. until confluent (usually 4-6 days).
Stimulation of chondrocytes and drug treatment:
The confluent chondrocytes are rinsed twice with serum-free Ham's F-12 medium and 1 ml is added to each well. Fifty $1 of purified human IL 1(100 Units/ml; Genzyme Corporation, Boston, MA) is then added to stimulate these cells to secrete neutral protease. To measure drug effects, the cells are treated with test compound 10 min. prior to addition of IL 1. The standard screening dose is 10 $M. Twenty-four hours after IL 1 stimulation, supernatant fluids are collected and assayed for neutral protease activity.
The neutral protease activity of chondrocyte supernatant fluids is determined by their ability to degrade an insoluble protease substrate, azocoll (Sigma). Supernatants are treated for 10 min. at room temperature with 350 $M p-aminophenyl-murcuric acetate to activate the latent enzyme. Three hundred $1 of supernatant is then mixed with 500 $1 of a 20 mg/ml suspension of azocoll and incubated at 37° C. for 18-24 hrs. with gentle rocking. The mixtures are centrifuged and the amount of substrate hydrolyzed is determined by measuring the absorbance of the supernatant at 520 nm.
Drug effects are calculated as the % change in enzyme activity (absorbance)by supernatants from drug-treated chondrocytes relative to enzyme activity of supernatants from vehicle-treated chondrocytes as follows: [formula]

`N#Cc1ccc(N2CCc3nc4cc(Cl)ccc4c(Cl)c3C2)nc1` [Example 4, 6-(7,10-Dichloro-3,4-dihydrobenzo[b][1,6]naphthyridin-2(1H)-yl)-3-pyridine-carbonitrile, hemihydrate] was tested, and the inhibition at 5 µM (dose 5 μM) was 83% and the inhibition at 10 µM was 94%.

Work on `Clc1ccc2c(NNc3ccccc3)c3c(nc2c1)CCN(c1cnccn1)C3` [Example 5, 7-Chloro-1,2,3,4-tetrahydro-10-(2-phenylhydrazino)-2-(2-pyrazinyl)benzo[b][1,6]naphthyridine] yielded an inhibition at 10 µM of 85 ± 5%.

With `Clc1ccc2c(Cl)c3c(nc2c1)CCN(c1ccc2ccccc2n1)C3` [Example 3, 7,10-Dichloro-1,2,3,4-tetrahydro-2-(2-quinolinyl)benzo[b][1,6]naphthyridine] the inhibition at 10 µM was no more than 20%.

Work on `Clc1ccc2c(Cl)c3c(nc2c1)CCN(c1ncccn1)C3` [Example 1, 7,10-Dichloro-1,2,3,4-tetrahydro-2-(2-pyrimidinyl)benzo[b][1,6]naphthyridine] yielded an inhibition at 10 µM of 34 ± 8%.
